Patent US20260226056A1, “SUBSTITUTED 1H-PYRAZOLE-4-CARBOXAMIDES AS SARM1 INHIBITORS” (DISARM THERAPEUTICS, INC., priority 2023, published 2026)
pIC50: −log10 of the molar value.

Target: T1, hSARM1 (Homo sapiens, UniProt Q6SZW1)
T1 construct: This assay makes use of full length SARM1, which encompasses the ARM, SAM and TIR domains; made in house; host or cells: NRK1-HEK293T cells (transient transfection; cleared lysate used as enzyme)
T1 sequence (Q6SZW1 28-724): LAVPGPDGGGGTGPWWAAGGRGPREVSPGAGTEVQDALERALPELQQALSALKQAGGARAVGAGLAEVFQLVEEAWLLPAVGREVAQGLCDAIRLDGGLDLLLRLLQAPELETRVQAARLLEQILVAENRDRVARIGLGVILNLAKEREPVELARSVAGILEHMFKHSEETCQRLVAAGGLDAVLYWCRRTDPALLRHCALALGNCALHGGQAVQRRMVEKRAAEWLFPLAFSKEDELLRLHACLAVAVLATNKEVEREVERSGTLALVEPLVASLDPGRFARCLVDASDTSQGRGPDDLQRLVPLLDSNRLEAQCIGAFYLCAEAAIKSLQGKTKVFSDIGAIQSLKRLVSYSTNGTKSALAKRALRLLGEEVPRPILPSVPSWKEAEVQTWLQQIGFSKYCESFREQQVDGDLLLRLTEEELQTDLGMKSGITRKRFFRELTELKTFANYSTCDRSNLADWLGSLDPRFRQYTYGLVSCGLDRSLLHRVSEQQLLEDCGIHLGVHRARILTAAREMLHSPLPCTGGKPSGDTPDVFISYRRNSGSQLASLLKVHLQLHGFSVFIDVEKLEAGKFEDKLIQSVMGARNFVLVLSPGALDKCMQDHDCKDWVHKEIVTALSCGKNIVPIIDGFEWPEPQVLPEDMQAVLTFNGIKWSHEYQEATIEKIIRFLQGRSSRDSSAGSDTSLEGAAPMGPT
Experiment: ARM-SAM-TIR SARM1 IC50 Assay (NADase activity, NAD+ cleavage, RapidFire MS)
Assay type: biochemical
Conditions: ARM-SAM-TIR lysate 5 μg/mL, 2 hrs. pre-incubation with compound, 5 μM NAD+, 2 hrs. incubation
Procedure: This describes an assay of ARM-SAM-TIR NADase activity and use of this assay to measure the efficacy of compounds of the present invention to block SARM1 mediated NAD+ cleavage. This assay was optimized in such a way as to characterize the efficacy of the compounds of the present invention to inhibit SARM1 activity and to calculate an IC50 value for each compound. This assay makes use of full length SARM1, which encompasses the ARM, SAM and TIR domains.
NRK1-HEK293T cells were seeded onto 150 cm^2 plates at 20×10^6 cells per plate. The next day, the cells were transfected with 15 μg ARM-SAM-TIR expression plasmid (SEQ ID NO: 1 as disclosed in WO 2019/236879, Pages 77-81; Paragraph) [0310]).
The cultures were supplemented with 1 mM NR at time of transfection to minimize toxicity from ARM-SAM-TIR overexpression. Forty-eight hours after transfection, cells were harvested, pelleted by centrifugation at 1,000 rpm (Sorvall ST 16R centrifuge, Thermo Fisher), and washed once with cold PBS (0.01 M phosphate buffered saline NaCl 0.138 M; KCl 0.0027 M; pH 7.4). The cells were resuspended in PBS with protease inhibitors (Complete™ protease inhibitor cocktail, Roche product #11873580001) and cell lysates were prepared by sonication (Branson Sonifer 450, output=3, 20 episodes of stroke). The lysates were centrifuged (12,000×g for 10 min at 4° C.) to remove cell debris and the supernatants (containing ARM-SAM-TIR protein) were stored at −80° C. for later use in the in vitro ARM-SAM-TIR NADase assay (see below). Protein concentration was determined by the Bicinchoninic (BCA) method and used to normalize lysate concentrations.
The enzymatic assay was performed in a 384-well polypropylene plate in Dulbecco's PBS buffer in a final assay volume of 20 μL. ARM-SAM-TIR lysate with a final concentration of 5 μg/mL was pre-incubated with the respective compound at 1% DMSO final assay concentration over 2 hrs. at room temperature. The reaction was initiated by addition of 5 μM final assay concentration of NAD+ as substrate. After a 2 hrs. ambient temperature incubation, the reaction was terminated with 40 μL of stop solution of 7.5% trichloroacetic acid in acetonitrile. The NAD+ and ADPR concentrations were analyzed by a RapidFire High Throughput Mass Spectrometry System (Agilent Technologies, Santa Clara, CA) using an API4000 triple quadrupole mass spectrometer (AB Sciex Framingham, MA).
Compounds having an activity designated as “A” provided an IC50<50 nM; compounds having an activity designated as “B” provided an IC50 51-100 nM; compounds having an activity designated as “C” provided an IC50 101-500 nM; compounds having an activity designated as “D” provided an IC50 501-1000 nM; compounds having an activity designated as “E” provided an IC50>1000 nM.

Row | pIC50 | SMILES
1 | 6.00 to 6.30 | Cc1cnncc1-c1n[nH]c(NC(=O)CCc2ccc(Cl)c(F)c2)c1C(N)=O [Example 17, 5-(3-(4-Chloro-3-fluorophenyl)propanamido)-3-(5-methylpyridazin-4-y1)-1H-pyrazole-4-carboxamide]
2 | < 6.00 | CNC(=O)c1c(-c2ccnnc2)n[nH]c1NC(=O)CCc1ccc(F)nc1 [Example 18, 5-(3-(6-Fluoropyridin-3-yl)propanamido)-N-methyl-3-(pyridazin-4-y1)-1H-pyrazole-4-carboxamide]
3 | < 6.00 | NC(=O)c1c(-c2ccnnc2)n[nH]c1NC(=O)CCc1ccc(F)nc1 [Example 19, 5-(3-(6-Fluoropyridin-3-yl)propanamido)-3-(pyridazin-4-yl)-1H-pyrazole-4-carboxamide]
4 | 6.30 to 7.00 | NC(=O)c1c(-c2ccnnc2)n[nH]c1NC(=O)CCc1cnc(Cl)c(F)c1 [Example 20, 5-(3-(6-Chloro-5-fluoropyridin-3-yl)propanamido)-3-(pyridazin-4-y1)-1H-pyrazole-4-carboxamide]
5 | 7.00 to 7.29 | NC(=O)c1c(-c2ccnnc2)n[nH]c1NC(=O)CCc1ccc(Cl)c(F)c1 [Example 21, 5-(3-(4-Chloro-3-fluorophenyl)propanamido)-3-(pyridazin-4-yl)-1H-pyrazole-4-carboxamide]
6 | 6.00 to 6.30 | NC(=O)c1c(-c2ccncc2)n[nH]c1NC(=O)CCc1ccc(F)nc1 [Example 22, 5-(3-(6-Fluoropyridin-3-yl)propanamido)-3-(pyridin-4-yl)-1H-pyrazole-4-carboxamide]
7 | 6.30 to 7.00 | NC(=O)c1c(-c2ccncc2)n[nH]c1NC(=O)CCc1ccc(C(F)(F)F)cc1 [Example 23, 3-(Pyridin-4-y1)-5-(3-(4-(trifluoromethyl)phenyl)propanamido)-1H-pyrazole-4-carboxamide]
8 | 6.30 to 7.00 | CNC(=O)c1c(-c2ccncc2)n[nH]c1NC(=O)CCc1ccc(Cl)cc1 [Example 24, 3-(3-(4-chlorophenyl)propanamido)-N-methyl-5-(pyridin-4-yl)-1H-pyrazole-4-carboxamide]
9 | 6.30 to 7.00 | O=C1NCN(C(=O)CCc2ccc(Cl)cc2)c2[nH]nc(-c3ccncc3)c21 [Example 25, 7-(3-(4-Chlorophenyl)propanoyl)-3-(pyridin-4-yl)-1,5,6,7-tetrahydro-4H-pyrazolo[3,4-d]pyrimidin-4-one]
10 | 6.30 to 7.00 | O=C1NCN(C(=O)CCc2ccc(Cl)c(F)c2)c2[nH]nc(-c3ccncc3)c21 [Example 26, 7-(3-(4-Chloro-3-fluorophenyl)propanoy1)-3-(pyridin-4-y1)-1,5,6,7-tetrahydro-4H-pyrazolo[3,4-d]pyrimidin-4-one]
11 | < 6.00 | O=C1NCN(C(=O)CCc2cnc(Cl)c(F)c2)c2[nH]nc(-c3ccncc3)c21 [Example 27, 7-(3-(6-Chloro-5-fluoropyridin-3-y1)propanoyl)-3-(pyridin-4-y1)-1,5,6,7-tetrahydro-4H-pyrazolo[3,4-d]pyrimidin-4-one]
12 | < 6.00 | O=C1NCN(C(=O)CCc2ccc(Cl)nc2)c2[nH]nc(-c3ccncc3)c21 [Example 28, 7-(3-(6-Chloropyridin-3-yl)propanoyl)-3-(pyridin-4-yl)-1,5,6,7-tetrahydro-4H-pyrazolo[3,4-d]pyrimidin-4-one]
